Measurements reported in patent publication US6818657B1, “Bioprecursors of a retinoic derivative and pharmaceutical and/or cosmetic compositions” (Pierre Fabre Dermo-Cosmetique, priority 1999, dated 2004).
Values belong to the compound of their own block, whether it stands above or below them.

Key:
[1] = biological target: T1, recombinant β-glucocerebrosidase (Homo sapiens, UniProt P04062); assay: Michaelis constants (Km) and Vm of recombinant β-glucocerebrosidase for pseudosubstrates; type: biochemical; conditions: phthalate buffer pH 5.6 (0.025 M), taurocholate 5 mM, purified β-glucocerebrosidase, 30 minutes incubation
T1 construct: histidine tail (His tag) (C); made in house
T1 sequence (P04062 40-536): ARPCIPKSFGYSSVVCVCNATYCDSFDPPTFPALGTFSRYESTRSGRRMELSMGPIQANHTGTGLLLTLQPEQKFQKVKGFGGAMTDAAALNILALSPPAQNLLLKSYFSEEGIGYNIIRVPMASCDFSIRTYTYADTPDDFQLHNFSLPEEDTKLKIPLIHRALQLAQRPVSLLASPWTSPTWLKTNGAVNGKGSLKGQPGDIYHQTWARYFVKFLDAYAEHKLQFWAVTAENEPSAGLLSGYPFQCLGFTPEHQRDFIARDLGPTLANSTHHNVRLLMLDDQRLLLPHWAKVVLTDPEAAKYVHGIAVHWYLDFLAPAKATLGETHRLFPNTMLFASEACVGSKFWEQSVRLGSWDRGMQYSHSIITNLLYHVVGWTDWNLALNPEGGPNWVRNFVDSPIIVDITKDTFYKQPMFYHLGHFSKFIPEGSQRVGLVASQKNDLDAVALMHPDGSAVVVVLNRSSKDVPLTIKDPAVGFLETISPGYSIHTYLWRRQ
Description: After confirming that β-glucocerebrosidase is expressed in the keratinocytes, we produced a recombinant enzyme in the baculovirus system. A histidine tail was added to the COOH end of the protein to allow it to be purified by affinity column chromatography.
Thus, we were able to determine the Michaelis constants (Km) and the Vm values of the recombinant β-glucocerebrosidase in particular for the retinoic acid-arbutin glucoconjugate. The kinetics measurements are carried out in a phthalate buffer at pH 5.6 (0.025 M) containing taurocholate (5 mM), purified β-glucocerebrosidase and the test conjugate at various concentrations. The incubation lasts 30 minutes and the amount of hydroquinone-retinoic acid conjugate released is assayed by HPLC. The table below gives the results obtained. […] As regards their rates of hydrolysis, these are lower and thus allow effects to be obtained over time.

[2] = Distribution in the stratum corneum after topical application; type: in vivo

Km [1]: 2800 ± 700 µM | Vm weighted by the amount of soluble proteins [1]: 4000 ± 1000 nmol/h/mg
SMILES: Cc1cc(=O)oc2cc(O[C@@H]3O[C@H](CO)[C@@H](O)[C@H](O)[C@H]3O)ccc12 [4-Methylumbelliferyl-glucopyranoside, 4-methyl-umbelliferyl-β-D-glucopyranoside]

SMILES: CC1=C(/C=C/C(C)=C/C=C/C(C)=C/C(=O)O)C(C)(C)CCC1 [retinoic acid]
location in the stratum corneum after topical application ([2]; in vivo): accumulate in the upper layers of the stratum corneum after topical application and are removed by desquamation

SMILES: Cc1c(C)c2c(c(C)c1O)CC[C@@](C)(CCC[C@H](C)CCC[C@H](C)CCCC(C)C)O2 [vitamin E (α-tocopherol), α-tocopherol]
location in the stratum corneum after topical application ([2]; topical application, same excipient): accumulate in the upper layers of the stratum corneum after topical application and are removed by desquamation

Vm weighted by the amount of soluble proteins [1]: 453 ± 20 nmol/h/mg | Km ([1]; HPLC assay): 7 ± 1 µM
SMILES: Cc1cc(O[C@@H]2O[C@H](CO)[C@@H](O)[C@H](O)[C@H]2O)cc2c1O[C@](C)(CCC[C@H](C)CCC[C@H](C)CCCC(C)C)CC2 [δ-Tocopheryl-glucopyranoside]
